Results from patent US4672068A, “Antihypertensive 1,4-dihydropyridines having a conjugated ester” (Fujirebio Kabushiki Kaisha, priority 1984, dated 1987).

Test system: Male spontaneously hypertensive rats (SHR), arterial blood pressure
Test: Depressor response after intravenous administration (30 μg/kg), Table 1
Assay type: in vivo, rat
Settings: for Duration: '90<' means greater than 90
Procedure: Male spontaneously hypertensive rats (SHR) which had mean arterial blood pressures higher than 140 mmHg were used for the experiments. Arterial blood pressure was measured through the catherized artery with a pressure transducer (MPU-0.5, manufactured by Nihon Kohden Kabushiki Kaisha). The catheter was inserted into the abdominal aorta via the median coccygcal artery of SHR under light ether anesthesia. The recordings were made on a rectigraph (manufactured by Sanei Sokki Kabushiki Kaisha). The 1,4-dihydropyridine derivatives prepared in the foregoing examples were administered with catheter which was inserted previously into the caudal vein or duodenum at least two hours after the operation. SHR were restrained with wire mesh cage immediately after the operation. Each derivative to be tested was dissolved in 1.5% PVP/ethanol, and then diluted with 0.9% saline or intravenous administration (30 μg/kg), or suspended in 5% gum arabic solution of intraduodenal administration (1 mg/kg).

For `COC(=O)C1=C(C)NC(C)=C(C(=O)OCCC=Cc2ccsc2)C1c1cccc([N+](=O)[O-])c1` (stereo not drawn) [Example 26, 4-(3-thienyl)-3-butenyl methyl 4-(3-nitrophenyl)-2,6-dimethyl-1,4-dihydropyridine-3,5-dicarboxylate], the “The time to reach the lowest BP” value was 1.5 min and the “ΔBP (Maximum depressor response)” value was 47 mmHg.
With `COCCOC(=O)C1=C(C)NC(C)=C(C(=O)OC(C)C=Cc2ccccc2)C1c1cccc([N+](=O)[O-])c1` (stereo not drawn) [Example 34, 1-methyl-3-phenyl-2-propenyl 2-methoxyethyl 4-(3-nitrophenyl)-2,6-dimethyl-1,4-dihydropyridine-3,5-dicarboxylate] the “The time to reach the lowest BP” value was 5 min, the “ΔBP (Maximum depressor response)” value was 45 mmHg and the Duration was greater than 230 min.
In the case of `CC=CC=CCOC(=O)C1=C(C)NC(C)=C(C(=O)OCC=Cc2ccccc2)C1c1cccc([N+](=O)[O-])c1` (stereo not drawn) [Example 71, Cinnamyl 2,4-hexadienyl 4-(3-nitrophenyl)-2,6dimethyl-1,4-dihydropyridine-3,5-dicarboxylate], the “The time to reach the lowest BP” value is reported as 10 min, the “ΔBP (Maximum depressor response)” value is reported as 42 mmHg and the Duration is reported as greater than 90 min.
`CC=CC=CCOC(=O)C1=C(C)NC(C)=C(C(=O)OC(C)(C)C)C1c1cccc([N+](=O)[O-])c1` (stereo not drawn) [Example 75, tert-butyl 2,4-hexadienyl 4-(3-nitrophenyl)-2,6-dimethyl-1,4-dihydropyridine-3,5-dicarboxylate] was tested, and the “The time to reach the lowest BP” value was 1 min and the “ΔBP (Maximum depressor response)” value was 28 mmHg.
With “Benzyl 2,4-hexadienyl 4-(2-furyl)-2,6-dimethyl-1,4-dihydropyridine-3,5-dicarboxylate [Example 81]” the “The time to reach the lowest BP” value was 2.0 min and the “ΔBP (Maximum depressor response)” value was 25 mmHg.
`CC1=C(C(=O)OCC=Cc2ccccc2)C(c2cccc([N+](=O)[O-])c2)C(C(=O)OCCSc2ccccc2)=C(C)N1` (stereo not drawn) [Example 42, Cinnamyl 2-phenylthioethyl 4-(3-nitrophenyl)-2,6-dimethyl-1,4-dihydropyridine-3,5-dicarboxylate] was tested, and the “The time to reach the lowest BP” value was 10 min, the “ΔBP (Maximum depressor response)” value was 35 mmHg and the Duration was greater than 90 min.
For `COC(=O)C1=C(C)NC(C)=C(C(=O)OC(C)(C)C=Cc2ccccc2)C1c1cccc([N+](=O)[O-])c1` (stereo not drawn) [Example 23, 1,1-dimethyl-3-phenyl-2-propenyl methyl 4-(3-nitrophenyl)-2,6-dimethyl-1,4-dihydropyridine-3,5-dicarboxylate], the “The time to reach the lowest BP” value was 2.2 min and the “ΔBP (Maximum depressor response)” value was 48 mmHg.
For `CC1=C(C(=O)OCC=Cc2ccccc2)C(c2cccc([N+](=O)[O-])c2)C(C(=O)OC(C)C=Cc2ccccc2)=C(C)N1` (stereo not drawn) [Example 47, Cinnamyl 1-methyl-3-phenyl-2-propenyl 4-(3-nitrophenyl)-2,6-dimethyl-1,4-dihydropyridine-3,5-dicarboxylate], the “The time to reach the lowest BP” value was 48 min, the “ΔBP (Maximum depressor response)” value was 67 mmHg and the Duration was greater than 120 min.
In the case of `COC(=O)C1=C(C)NC(C)=C(C(=O)OCCC=Cc2ccc([N+](=O)[O-])cc2)C1c1cccc([N+](=O)[O-])c1` (stereo not drawn) [Example 21, 4(p-nitrophenyl)-3-butenyl methyl 4-(3-nitrophenyl)-2,6-dimethyl-1,4-dihydropyridine-3,5-dicarboxylate], the “The time to reach the lowest BP” value is reported as 1.0 min, the “ΔBP (Maximum depressor response)” value is reported as 70 mmHg and the Duration is reported as greater than 120 min.
In the case of `CC=CC=CCOC(=O)C1=C(C)NC(C)=C(C(=O)OCC(C)C)C1c1cccc([N+](=O)[O-])c1` (stereo not drawn) [Example 76, Isobutyl 2,4-hexadienyl 4-(3-nitrophenyl)-2,6-dimethyl-1,4-dihydropyridine-3,5-dicarboxylate], the “The time to reach the lowest BP” value is reported as 6 min and the “ΔBP (Maximum depressor response)” value is reported as 32 mmHg.
With `C=CCOC(=O)C1=C(C)NC(C)=C(C(=O)OCC=CC=CC)C1c1cccc([N+](=O)[O-])c1` (stereo not drawn) [Example 80, Allyl 2,4-hexadienyl 4-(3-nitrophenyl)-2,6-dimethyl-1,4-dihydropyridine-3,5-dicarboxylate] the “The time to reach the lowest BP” value was 1.4 min and the “ΔBP (Maximum depressor response)” value was 40 mmHg.
